Experimental data taken from publication PMC8143291, “Cytotoxicity and Microbicidal Activity of Commonly Used Organic Solvents: A Comparative Study and Application to a Standardized Extract from Vaccinium macrocarpon” (Toxics, 2021).

Tests used:
[1] = tested on: HaCaT (immortalized human keratinocytes); experiment: MTT dye-reduction cytotoxicity assay (ISO 10993-5); type: cell-based; conditions: solvent alone, n = 3; for IC50 (CI 95%): 72 h incubation; for MTC (maximum tolerated concentration): 72 h, at least 70% of cells viable
Text: (§1) The cell lines utilized in this study included the human tumor lines A-375 (malignant melanoma) and A-431 (non-melanoma epidermoid squamous skin carcinoma) as well as the models for non-tumorigenic cells—HaCaT (immortalized human keratinocytes) and CCL-1^TM (transformed mouse fibroblasts, NCTC clone 929). The first three cell lines were obtained from CLS Cell Lines Service (GmbH, Eppelheim, Germany). CCL-1^TM was purchased from the American Type Culture Collection (ATCC, Manassas, VA, USA). Cells were maintained in a controlled environment—sterile cell culture flasks in a CO2 incubator Panasonic MCO-18AC (Panasonic Healthcare co., ltd, Oizumi-Machi, Japan) at 37 °C and a humidified atmosphere containing 5% CO2. CCL-1 was cultured in MEM with 10% heat-inactivated horse serum and 2 mM L-glutamine, and the cell culture medium for the rest of the cell lines was DMEM-HG with 4.5 g/L glucose with the addition of 10% heat-inactivated fetal bovine serum and 4 mM L-glutamine. Pen/strep (concentration of penicillin G sodium 10^5 Units/L and of streptomycin sulfate 100 mg/L) was added to both culture media. The cell lines were maintained as an adherent monolayer in a log phase. The cells were sub-cultivated about 1–3 times per week after the monolayer reached 80–90% confluence. The medium was removed from the flask, and the cell monolayer was washed with 3–5 mL PBS. The cells were incubated with 0.05% EDTA in PBS for 8–10 min, followed by the next step where all cell lines were subjected to enzyme cell detachment. HaCaT and CCL-1 monolayers were detached with 1 mL solution of trypsin/EDTA (0.1%/0.05% for HaCaT and 0.25% (w/v)/0.53 mM for CCL-1) and incubated for 2–5 min at 37 °C (for HaCaT) or at room temperature (for CCL-1 cells), whereas Accutase® was used for A-375 and A-431 lines. The incubation lasted until the separation and dispersion of the cells in the monolayer were observed using light microscopy. In the end, all cell lines were resuspended in 10 mL medium and centrifuged for 3 min at 300× g. The cell pellet was resuspended in fresh medium and sub-cultivated at a seeding density of 1.0 × 10^4 cells/cm^2.
(§2) The MTT test was performed in order to determine the median inhibitory (IC50) and MTC concentrations of the solvents and PAC according to Annex C, ISO 10993-5 [2, 21]. Briefly, 100 µL of the cell suspension (1 × 10^5 cells/mL) were seeded per well in 96-well plates with a flat bottom. The cells were incubated for 24 h, allowing them to enter the log phase of their growth. On the 24th hour, the cells were treated with the solvents or CystiCran® solutions in concentrations ranging between 0.004% and 2% volume fraction (v/v) and incubated further for 72 h. The incubation periods are following the recommendations of the FDA guide for the use of ISO 10993-1 [1]. At the end of the incubation period, 10 µL of an MTT solution (5 mg/mL) were added to each well, and the plates were kept at 37 °C for 2 hours. Thereafter, the medium was aspirated, and the formed formazan crystals were dissolved in 100 μL/well of 2-propanol supplemented with 5% formic acid. The same solvent was used as a blank. Untreated cells were considered as a negative control. […] The absorption was measured at 540 nm (reference filter at 690 nm) on a microplate reader ELx800 (BioTek Instruments, Inc., Winooski, VT, Winooski, VT, USA).
(§3) The IC50 values from the MTT assay were evaluated with a non-linear regression analysis (Curve fit, GraphPad Prizm 6.01 software, GraphPad Software Inc., San Diego, CA, USA) using sigmoidal concentration–response curves. The cell viability is presented as a percentage of the untreated control. At least four wells were seeded for every concentration. Three independent assays were performed (n = 3).

[2] = tested on: Staphylococcus epidermidis, Salmonella paratyphi A, Vibrio cholerae, Shigella flexneri and Pseudomonas oleovorans; conditions: cited from earlier work
P. aeruginosa ATCC 27853 = experiment: Dehydrogenase activity (DEHA) MTT test after BMD; type: cell-based, Pseudomonas aeruginosa; conditions: for DEHA (dehydrogenase activity): 24 h exposure, % against untreated control, ± SD, n = 3
Experimental: (§4) The cell dehydrogenase (DEHA, redox, metabolic) activity of all samples was measured at the end of the BMD assay, based on reducing the MTT dye to formazan by the membrane located bacterial enzyme NADH: ubiquinone reductase (H^+-translocation). The protocol of Wang et al. was applied after minor modifications. Briefly, each sample was incubated for 120 min at 37 °C with MTT at a final concentration of 0.5 mg/mL in the culture medium. The resulting non-soluble violet formazan crystals were dissolved with an equal volume of 2-propanol supplemented with 5% formic acid. The absorbance was measured at 550 nm against a blank solution containing the respective volumes of MHB and MTT.
(§5) The cell viability is presented as a percentage of the untreated control. At least four wells were seeded for every concentration. Three independent assays were performed (n = 3). […] The respiratory activity of the bacterial cultures was calculated as a percentage against the untreated control.

E. faecalis ATCC 29212 = experiment: Dehydrogenase activity (DEHA) MTT test after BMD; type: cell-based, Enterococcus faecalis; conditions: 24 h exposure; % against untreated control; ± SD; n = 3
Experimental: as §4, §5

S. epidermidis = tested on: S. epidermidis; set-up: method as in doi:10.5580/b43; conditions: in the presence of 6% solvent; cited from earlier work
S. pyogenes SAIMC 10535 = experiment: Dehydrogenase activity (DEHA) MTT test after BMD; type: cell-based, Streptococcus pyogenes; conditions: 24 h exposure; % against untreated control; ± SD; n = 3
Experimental: as §4, §5

[3] = tested on: CCL-1 (transformed mouse fibroblasts, NCTC clone 929); experiment: MTT dye-reduction cytotoxicity assay (ISO 10993-5); type: cell-based; conditions: for MTC (maximum tolerated concentration): at least 70% of cells viable
Text: as §1, §2, §3

[4] = tested on: A-431 (non-melanoma epidermoid squamous skin carcinoma); experiment: MTT dye-reduction cytotoxicity assay (ISO 10993-5); type: cell-based, human; conditions: solvent alone, n = 3; for MTC (maximum tolerated concentration): 72 h, at least 70% of cells viable
Text: as §1
as §2, with “blank.” for “blank. Untreated cells were considered as a negative control.”
The IC50 values from the MTT assay were evaluated with a non-linear regression analysis (Curve fit, GraphPad Prizm 6.01 software, GraphPad Software Inc., San Diego, CA, USA) using sigmoidal concentration–response curves. […]

[5] = tested on: breast cancer, mouse macrophage and human umbilical vein endothelial cells; set-up: method as in doi:10.17795/ajmb-33453; conditions: cited from earlier work

| Molecule | IC50 (CI 95%) [1] | MTC [2] | DEHA (dehydrogenase activity) (P. aeruginosa ATCC 27853) | DEHA (dehydrogenase activity) (E. faecalis ATCC 29212) | survival (S. epidermidis) | DEHA (dehydrogenase activity) (S. pyogenes SAIMC 10535) | MTC (maximum tolerated concentration) ([3]; solvent alone, 72 h, n = 3) | MTC (maximum tolerated concentration) [1] | MTC (maximum tolerated concentration) [4] | IC50 (CI 95%) ([4]; 72 h incubation) | growth inhibition ([2]; at a concentration of 1% v/v) | maximum tolerated concentration (MTC) / applicable concentration [5] | IC50 value ([3]; 72 h, equals 1.16% v/v) | IC50 (CI 95%) ([3]; solvent alone, 72 h incubation, n = 3) | suppression of the respiratory activity (P. aeruginosa ATCC 27853; P. aeruginosa) |
| --- | --- | --- | --- | --- | --- | --- | --- | --- | --- | --- | --- | --- | --- | --- | --- |
| C[S+](C)[O-] [DMSO, dimethyl sulfoxide] | 1.25 % (v/v) | 3 % volume fraction | 9.78 ± 0.01% | 29.86 ± 0.08% | 15% | 27.27 ± 0.02% | – | – | – | – | – | – | – | – | – |
| CCO [EtOH, ethanol] | > 2 % (v/v) | – | – | – | 26% | – | 1.15 % (v/v) | > 2 % (v/v) | > 2 % (v/v) | > 2 % (v/v) | 19% | up to 0.5 % v/v | – | – | – |
| polyethylene glycol of average molecular weight 400 [PEG-400] | – | – | 15.31 ± 0.04% | 65.33 ± 0.06% | – | 23.66 ± 0.02% | 0.21 % (v/v) | 0.41 % (v/v) | 0.89 % (v/v) | – | – | – | 13 mg/mL | 1.16 % (v/v) | ~85% |
